Here are results for 23 molecules from ChEMBL document CHEMBL4342511, “Discovery and Optimization of wt-RET/KDR-Selective Inhibitors of RETV804M Kinase” (ACS Med Chem Lett, 2020).

For data set [1], the species on record is Homo sapiens. Briefly: Selectivity index, ratio of IC50 for RET (unknown origin) expressed in BaF3 cells to IC50 for RET V804M mutant (unknown origin) expressed […] cells. The format is cell-based.
Data set [2] is described as follows: Kinetic solubility of compound. The format is physicochemical. As to conditions: read-out: Kinetic_solubility.
For data set [3], the species on record is Homo sapiens. Briefly: Selectivity index, ratio of IC50 for N-terminal His6-tagged recombinant human KDR (790 to end residue) expressed in baculovirus in Sf21 insect cells to IC50 for recombinant N-Terminal GST-tagged human RET V804M mutant (658 to end residues).
For data set [4], the species on record is Homo sapiens. Nature of the data set: Selectivity index, ratio of IC50 for KDR (unknown origin) expressed in BaF3 cells to IC50 for RET V804M mutant (unknown origin) expressed […] cells. It counts as cell-based.
The species named for data set [5] is Homo sapiens. Briefly: Selectivity index, ratio of IC50 for GST-tagged human RET expressed in baculovirus to IC50 for recombinant N-Terminal GST-tagged human RET V804M mutant (658 to end residues).
Data set [6] has as its target Proto-oncogene tyrosine-protein kinase receptor Ret (Homo sapiens, UniProt P07949, V804M).
Data set [7] is described as follows: Efflux ratio of apparent permeability in human Caco2 cells. The format is ADME, cell-based. As to conditions: Caco-2. A general note: Passage across Caco-2 layers is used to estimate intestinal permeability.
The nature of data set [8]: Apparent permeability in human Caco2 cells. It counts as ADME, cell-based. Particulars: Caco-2.
A short description of data set [9]: Metabolic stability in mouse liver microsomes assessed as intrinsic clearance. It counts as ADME, Microsome. Particulars: read-out: CLH. (In general: Liver microsomes are a subcellular fraction often used to study metabolism.)

≈ marks a conversion by molar mass, not a printed value.

Proto-oncogene tyrosine-protein kinase receptor Ret, sequence (P07949 29-1114 V804M limits assumed): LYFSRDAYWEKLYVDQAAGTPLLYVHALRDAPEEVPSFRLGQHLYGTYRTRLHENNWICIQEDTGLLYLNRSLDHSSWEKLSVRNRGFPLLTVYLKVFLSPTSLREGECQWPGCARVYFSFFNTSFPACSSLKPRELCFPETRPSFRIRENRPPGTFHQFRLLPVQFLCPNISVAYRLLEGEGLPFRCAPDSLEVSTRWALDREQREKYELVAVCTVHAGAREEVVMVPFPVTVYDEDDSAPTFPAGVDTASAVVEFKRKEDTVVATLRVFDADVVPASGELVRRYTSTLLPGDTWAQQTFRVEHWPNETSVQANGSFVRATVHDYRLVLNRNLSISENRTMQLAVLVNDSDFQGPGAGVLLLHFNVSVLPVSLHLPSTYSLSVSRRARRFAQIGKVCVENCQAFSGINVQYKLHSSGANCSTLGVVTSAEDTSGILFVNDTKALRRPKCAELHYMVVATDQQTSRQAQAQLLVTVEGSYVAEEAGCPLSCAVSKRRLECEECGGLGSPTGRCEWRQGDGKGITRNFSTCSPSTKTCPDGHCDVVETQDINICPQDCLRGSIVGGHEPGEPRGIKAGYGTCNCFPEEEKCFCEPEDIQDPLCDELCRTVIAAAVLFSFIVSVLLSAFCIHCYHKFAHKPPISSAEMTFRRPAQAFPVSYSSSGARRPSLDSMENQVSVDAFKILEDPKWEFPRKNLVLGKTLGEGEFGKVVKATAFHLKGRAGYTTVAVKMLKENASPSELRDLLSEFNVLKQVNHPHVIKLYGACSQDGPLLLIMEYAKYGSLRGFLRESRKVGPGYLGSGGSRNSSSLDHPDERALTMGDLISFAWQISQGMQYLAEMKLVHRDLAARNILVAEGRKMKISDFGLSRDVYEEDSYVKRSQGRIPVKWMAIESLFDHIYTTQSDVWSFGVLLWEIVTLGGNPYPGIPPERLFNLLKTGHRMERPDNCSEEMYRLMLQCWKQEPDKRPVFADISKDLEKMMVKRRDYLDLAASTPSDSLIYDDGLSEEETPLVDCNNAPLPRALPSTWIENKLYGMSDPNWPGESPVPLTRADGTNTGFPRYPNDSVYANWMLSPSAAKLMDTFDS

Regarding `c1cc(CNc2ccn3ncc(-c4ccc5c(c4)OCO5)c3n2)ccn1`, the Ratio IC50 in data set [1] was determined as 2.2; in data set [3], 27; in data set [4], 6.2; in data set [5], 0.64. The solubility kinetic in data set [2] turned out to be 30 µM (≈ 10.4 µg/mL). The molecule further registered an IC50 in data set [6] of 290 nM.
In the case of `c1cc(Nc2ccn3ncc(-c4ccc5c(c4)OCO5)c3n2)ccn1`, the Ratio IC50 in [3] and in data set [5] was 2.1 each time. In addition, the IC50 in [6] is 63000 nM.
Regarding `OCCNc1ccn2ncc(-c3ccc4c(c3)OCO4)c2n1`, the Ratio IC50 in data set [1] came to 1.5; in data set [3] it was 19; in data set [4], 1.5; in [5], 15. This molecule showed an IC50 in data set [6] of 130 nM.
For `NC(=O)c1cccc(-c2cnn3ccc(NCc4ccncc4)nc23)c1`, in data set [3], the Ratio IC50 worked out at 8. For the same molecule, inhibition in [6] was half-maximal at 4300 nM (IC50).
With `NC(=O)c1ccc(-c2cnn3ccc(NCc4cccnc4)nc23)cc1`, the Ratio IC50 was 0.85 in data set [1], 19 in data set [3], 1.9 in [4] and 13 in data set [5]. Besides, the half-inhibitory concentration (IC50) in [6] was 51 nM.
Turning to `CS(=O)(=O)Nc1ccc(-c2cnn3ccc(NCc4ccncc4)nc23)cc1`, the figures for the Ratio IC50 in data set [3] and in data set [5] were 29 and 0.28, respectively. The concentration for half-maximal inhibition (IC50) in data set [6] was determined as 1500 nM.
With `CN(C)C(=O)c1ccc(-c2cnn3ccc(NCc4ccncc4)nc23)cc1`, the Ratio IC50 came out at 3.9 in data set [3] and 1.8 in data set [5]. In [6], this molecule showed an IC50 of 7600 nM.
Regarding `NC(=O)c1ccc(-c2cnn3ccc(NCc4ccccn4)nc23)cc1`, the Ratio IC50 in data set [1] amounted to 0.9; in data set [3], 22; in [4], 2; in [5] it was 19. Inhibition in data set [6] was half-maximal at 44 nM (IC50).
Consider `c1ccc(CNc2ccn3ncc(-c4ccc5c(c4)OCO5)c3n2)nc1`, for which the Ratio IC50 in data set [1] turned out to be 3.1; in data set [3] it was 100; in data set [4] it was 7.6; in data set [5] it was 14. In data set [6], this molecule gave a half-maximal inhibitory concentration (IC50) of 39 nM.
For `c1cc2c(cc1-c1cnn3ccc(NC4CCNCC4)nc13)OCO2`, the values for the Ratio IC50 in [3] and in [5] were 17 and 1.2, respectively. Besides, in data set [6], the IC50 amounted to 880 nM.
Take `c1cc2c(cc1-c1cnn3ccc(NCCN4CCCCC4)nc13)OCO2`: the Ratio IC50 in [3] was 34; in [5], 5.3. The molecule also registered a concentration for half-maximal inhibition (IC50) in data set [6] of 660 nM.
Regarding `c1ccc(-c2cnn3ccc(NCc4ccncc4)nc23)cc1`, the Ratio IC50 came out at 0.96 in [3] and 2.4 in data set [5]. The same molecule registered an IC50 in [6] of 1140 nM.
As to `CC(=O)Nc1cccc(-c2cnn3ccc(NCc4ccncc4)nc23)c1`, the Ratio IC50 in [3] came out at 22; in data set [5], 4. Besides, in [6], the IC50 turned out to be 1600 nM.
On to `c1cc(CNc2ccn3ncc(-c4ccc5cn[nH]c5c4)c3n2)ccn1`, for which the Ratio IC50 in data set [1] was determined as 1.9; in data set [3] it was 83; in [4], 1.9; in [5], 18. Besides, the IC50 in [6] was found to be 300 nM.
Turning to `CC(=O)Nc1ccc(-c2cnn3ccc(NCc4ccncc4)nc23)cc1`, the Ratio IC50 in data set [3] was 4.4; in data set [5] it was 2.6. Also, in data set [6], it took 6700 nM to reach half-maximal inhibition (IC50).
With `NS(=O)(=O)c1ccc(-c2cnn3ccc(NCc4ccncc4)nc23)cc1`, the Ratio IC50 in data set [1] was found to be 1; in [3] it was 220; in [4], 1; in data set [5] it was 1.3. In data set [6], half-maximal inhibition (IC50) required 360 nM.
`c1cc2c(cc1-c1cnn3ccc(NCC4CCNCC4)nc13)OCO2`: the Ratio IC50 in data set [1] worked out at 0.85; in [3] it was 64; in data set [4] it was 2.6; in data set [5], 1.2. In [6], this molecule registered a 50% inhibitory concentration (IC50) of 200 nM.
For `CN(C)CCNc1ccn2ncc(-c3ccc(C(N)=O)cc3)c2n1`, the Ratio IC50 in data set [1] worked out at 0.3; in [3], 54; in data set [4] it was 0.83; in [5], 4.7. Also, the half-inhibitory concentration (IC50) in data set [6] was 350 nM.
Take `CN(C)CCNc1ccn2ncc(-c3ccc4c(c3)OCO4)c2n1`: the Ratio IC50 in [1] worked out at 9.8; in [3] it was 540; in [4], 13; in data set [5], 21. In [6], this molecule yielded an IC50 of 91 nM.
On to `O=C(O)c1ccc(-c2cnn3ccc(NCc4ccncc4)nc23)cc1`, for which the Ratio IC50 in data set [3] turned out to be 1.8; in data set [5], 1.2. Besides, in data set [6], the midpoint of inhibition, the IC50, lay at 560 nM.
With `NC(=O)c1ccc(-c2cnn3ccc(NCc4ccncc4)nc23)cc1`, the Ratio IC50 in data set [1] worked out at 0.89; in [3] it was 110; in data set [4], 2.3; in [5], 3.7. Moreover, the IC50 in data set [6] was found to be 20 nM.
As for `c1ccc(CNc2ccn3ncc(-c4ccc5c(c4)OCO5)c3n2)cc1`, the Ratio IC50 in data set [3] turned out to be 2.3; in [5] it was 0.16. Also, the IC50 in [6] amounted to 29000 nM.
`CN(C)CCCNc1ccn2ncc(-c3ccc4c(c3)OCO4)c2n1`: the efflux ratio in [7] came out at 1.4. Further, the Ratio IC50 in data set [1] worked out at 32; in data set [3], 410; in [4], 76; in data set [5] it was 16. In addition, the solubility kinetic in data set [2] is > 100 µM. In [8], the Papp came out at 22.8 ×10⁻⁶ cm/s. Further, the microsomal CLint in [9] is 62 µL/min/mg. In [6], this molecule returned an IC50 of 19 nM.

What is called IC50 is the midpoint of a concentration-inhibition curve. The efflux ratio is the permeability from basolateral to apical divided by that in the opposite direction, in the common usage. The Papp is the rate of passage across a membrane or cell layer, normalised by area and donor concentration.
